“Also recorded” adds a separate entry of the source.
Tests used:
colonic dysplasia = assay: In vivo fluorescence endoscopy of colon in CPC;Apc mouse; conditions: CPC;Apc mouse colon
Excerpt: A genetically engineered mouse model (Cpc;Apc) that spontaneously forms adenomatous polyps in the colon was used for this study and handled according to Institutional Guidelines. The colons of anesthetized mice were first cleaned with water before imaging with a small animal endoscope (Karl Storz Veterinary Endoscope) using the white light channel to locate polyps by identifying anatomic landmarks and the distance of the endoscope tip from the anus. […] Fluorescent and reflectance images were then collected with the same endoscope set to the appropriate channels. Once in vivo imaging was complete, four of the mice used in the study were euthanized and colons harvested. Polyps and flat lesions detected during fluorescence imaging were located, removed, and processed for histology (H&E).
These mice are genetically-engineered to spontaneously develop colonic dysplasia, and the colonic lesions that develop are molecularly and histologically similar to that seen in human disease, making these mice a good model for monitoring cancer development. Because the extra-cellular domain of claudin-1 is completely homologous between human and mouse, peptides developed for human targets can be directly used in mouse imaging experiments. […] CPC;Apc mice were imaged at ˜3 months of age when they first begin to develop dysplasia. […] After imaging is completed, mice were euthanized, and the colons were resected. Based on the location of dysplastic lesions determined using fluorescence images collected with endoscopy, a pathologist measured the depth of dysplasia on histology, as shown by the dashed arrow in FIG. 7E. […] Images are obtained from mice over at least three sessions separated by 1 week to monitor for cancer progression.

SW620 cells = assay: Apparent dissociation constant by flow cytometry; type: binding, human; conditions: 0-200 nM, 1 h at 4° C., R^2=0.95
Procedure: The apparent dissociation constant of RTS*-Cy5.5 to SW620 cells was measured. SW620 cells were washed two times with PBS+0.5% BSA, then 1×10^5 cells were incubated with RTS*Cy5.5 at dilutions ranging from 0-200 nM for 1 h at 4° C. Cells were then washed of unbound peptide 5 times with PBS+0.5% BSA before analyzing via flow cytometry (FACS Canto, BD). Sample means were used to calculate the equilibrium dissociation constant, kd, via nonlinear regression analysis using GraphPad Prism software.
The apparent dissociation constant (kd) of the peptides to cells in vitro was determined. The fluorescently-labeled peptide was be serially diluted in PBS at concentrations that ranged from 0 to 200 nM in 25 nM increments. Cells were incubated with the peptide, and the mean fluorescence intensities was measured on flow cytometry. The equilibrium dissociation constant kd=1/ka was calculated by performing a least squares fit of the data to the non-linear equation I=(I0+Imaxka[X])/([…]). I0 and Imax are the initial and maximum fluorescence intensities, corresponding to no peptide and at saturation, respectively, and [X] represents the concentration of the bound peptide. This approach is illustrated with RTS*-Cy5.5 in FIG. 3B, where kd=42 nM.

RTS*-Cy5.5: RTSPSSR labeled at the C-terminus with Cy5.5 via a GGGSK linker
fluorescence signal from dysplasia on endoscopy (colonic dysplasia): Increased signal; also recorded: increased fluorescence | Kd (SW620 cells): 42 nM

From patent US10746738B2, “Claudin-1 peptide reagents and methods” (THE REGENTS OF THE UNIVERSITY OF MICHIGAN, priority 2015, dated 2020)
